Assay results published in article PMC9127186, “Molecular Basis Underlying Hepatobiliary and Renal Excretion of Phenolic Acids of Salvia miltiorrhiza Roots (Danshen)” (Frontiers in Pharmacology, 2022).

What was measured:
human MRP3 = human MRP3 (Homo sapiens, UniProt O15438); assay: Vesicular transport assay, inside-out membrane vesicles expressing human MRP3; details: positive substrate 20 μM, 10 min; human MRP3
Description: (§1) Inside-out membrane vesicles (5 mg protein/mL), prepared from insect cells expressing human multidrug resistance-associated protein (MRP) 2, MRP3, MRP4, breast cancer resistance protein (BCRP), bile salt export pump (BSEP), and multidrug resistance protein (MDR) one and rat Mrp2, Mrp4, Bcrp, and Bsep, and vesicles (5 mg protein/mL; prepared from the insect cells expressing no ABC transporter; serving as negative control) were obtained from Genomembrane (Kanazawa, Japan).
(§2) The test Danshen compounds at 100 µM final concentration were separately incubated with the membrane vesicles for 10 min. Buffer C (50 mM MOPS-tris, 70 mM KCl, 7.5 mM MgCl2, pH 7.0) was used for preincubation and incubation, while buffer D (40 mM MOPS-tris, 70 mM KCl, pH 7.0) was used for vesicle washing. The transport rate (pmol/mg protein/min) of the test Danshen compound was calculated using Equation (2): Transport=(CV×VV)/T/WV (2) where C V, V V, T, and W V represent concentration of the compound in vesicular lysates supernatant (μM), volume of the lysates (μL), incubation time (10 min), and amount of vesicle protein amount per well (0.05 mg), respectively. Differential transport of the test Danshen compound between ATP-containing vesicles and AMP-containing vesicles was defined as net transport ratio (TransportATP/TransportAMP ratio). […] All the incubation samples were analyzed by liquid chromatography/mass spectrometry.

rat Mrp2 = rat Mrp2 (Rattus norvegicus, UniProt Q63120); assay: Vesicular transport assay, inside-out membrane vesicles expressing rat Mrp2; details: positive substrate 20 μM, 10 min; rat Mrp2
Description: as §1, §2

human MRP2 = human MRP2 (Homo sapiens, UniProt Q92887); assay: Vesicular transport assay, inside-out membrane vesicles expressing human MRP2; details: positive substrate 20 μM, 10 min; human MRP2
Chain of human MRP2 (Q92887 whole entry): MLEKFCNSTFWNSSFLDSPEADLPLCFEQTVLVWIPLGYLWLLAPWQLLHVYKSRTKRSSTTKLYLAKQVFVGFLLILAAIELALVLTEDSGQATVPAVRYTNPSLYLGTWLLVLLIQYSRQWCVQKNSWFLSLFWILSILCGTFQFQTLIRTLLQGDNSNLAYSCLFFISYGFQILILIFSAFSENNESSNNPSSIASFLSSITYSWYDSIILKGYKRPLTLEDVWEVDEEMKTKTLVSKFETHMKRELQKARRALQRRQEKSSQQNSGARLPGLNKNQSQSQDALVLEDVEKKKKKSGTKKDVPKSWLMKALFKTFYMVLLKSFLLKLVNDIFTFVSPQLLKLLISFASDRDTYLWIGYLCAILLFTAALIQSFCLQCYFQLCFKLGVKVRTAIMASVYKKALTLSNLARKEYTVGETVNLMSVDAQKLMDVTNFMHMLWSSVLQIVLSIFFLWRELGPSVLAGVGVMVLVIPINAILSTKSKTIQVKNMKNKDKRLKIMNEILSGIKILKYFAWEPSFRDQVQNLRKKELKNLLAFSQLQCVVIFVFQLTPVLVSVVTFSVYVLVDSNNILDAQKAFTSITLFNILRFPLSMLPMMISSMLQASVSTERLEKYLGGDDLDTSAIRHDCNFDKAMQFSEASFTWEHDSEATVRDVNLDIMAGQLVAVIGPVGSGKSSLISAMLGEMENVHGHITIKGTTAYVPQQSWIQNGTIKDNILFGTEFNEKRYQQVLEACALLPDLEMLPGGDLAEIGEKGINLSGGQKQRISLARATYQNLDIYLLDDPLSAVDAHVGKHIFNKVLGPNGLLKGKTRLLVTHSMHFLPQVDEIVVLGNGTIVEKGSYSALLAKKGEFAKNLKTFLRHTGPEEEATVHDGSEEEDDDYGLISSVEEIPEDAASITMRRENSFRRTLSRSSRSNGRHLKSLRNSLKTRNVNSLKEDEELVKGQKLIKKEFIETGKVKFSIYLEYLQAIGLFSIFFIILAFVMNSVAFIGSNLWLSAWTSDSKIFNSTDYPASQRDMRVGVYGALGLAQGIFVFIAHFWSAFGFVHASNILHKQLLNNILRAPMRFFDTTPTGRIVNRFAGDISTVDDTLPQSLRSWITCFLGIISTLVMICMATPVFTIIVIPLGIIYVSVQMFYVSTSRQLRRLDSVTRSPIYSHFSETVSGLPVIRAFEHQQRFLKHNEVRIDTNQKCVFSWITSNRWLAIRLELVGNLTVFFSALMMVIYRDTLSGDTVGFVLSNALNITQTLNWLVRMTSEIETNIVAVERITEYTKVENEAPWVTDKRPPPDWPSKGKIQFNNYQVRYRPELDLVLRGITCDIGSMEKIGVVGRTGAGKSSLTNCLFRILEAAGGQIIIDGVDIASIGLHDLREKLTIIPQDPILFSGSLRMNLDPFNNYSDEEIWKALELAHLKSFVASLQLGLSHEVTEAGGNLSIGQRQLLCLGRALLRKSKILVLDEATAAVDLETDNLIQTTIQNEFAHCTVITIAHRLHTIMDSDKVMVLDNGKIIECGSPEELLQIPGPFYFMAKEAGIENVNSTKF
Description: as §1, §2

OATP1B3 = target: T1, OATP1B3 (Homo sapiens, UniProt Q9NPD5); assay: Cellular transport assay, HEK-293 cells expressing human OATP1B3; details: positive substrate 20 μM, 10 min; human OATP1B3
T1 sequence (Q9NPD5 1-702): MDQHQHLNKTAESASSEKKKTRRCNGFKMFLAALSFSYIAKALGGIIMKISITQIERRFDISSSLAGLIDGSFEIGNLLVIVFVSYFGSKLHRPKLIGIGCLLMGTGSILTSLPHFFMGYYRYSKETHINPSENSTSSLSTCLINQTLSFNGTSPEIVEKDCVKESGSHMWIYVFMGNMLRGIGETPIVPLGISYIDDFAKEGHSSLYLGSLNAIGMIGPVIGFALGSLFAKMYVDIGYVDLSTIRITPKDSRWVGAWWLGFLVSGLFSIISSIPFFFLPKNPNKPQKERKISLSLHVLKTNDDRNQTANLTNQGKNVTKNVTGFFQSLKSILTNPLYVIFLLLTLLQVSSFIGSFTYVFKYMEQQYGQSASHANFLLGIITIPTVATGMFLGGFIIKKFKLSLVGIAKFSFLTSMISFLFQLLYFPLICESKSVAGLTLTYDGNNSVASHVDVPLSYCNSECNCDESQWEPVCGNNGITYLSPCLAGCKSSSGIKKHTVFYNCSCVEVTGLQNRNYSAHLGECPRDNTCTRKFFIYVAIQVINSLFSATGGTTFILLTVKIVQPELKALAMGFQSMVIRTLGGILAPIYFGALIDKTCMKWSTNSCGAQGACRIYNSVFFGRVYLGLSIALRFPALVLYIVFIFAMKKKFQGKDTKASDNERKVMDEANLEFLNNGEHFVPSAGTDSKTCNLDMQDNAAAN
Description: (§3) Briefly, HEK-293 cells were grown, at 37°C and 5% CO2, in Dulbecco’s modified Eagle’s medium, which was fortified with 10% fetal bovine serum, 1% minimal essential medium nonessential amino acids, and 1% antibiotic-antimycotic solution. A day before transfection, cells were seeded onto 24-well poly-D-lysine-coated plates at a density of 2 × 10^5 cells per well. After incubation at 37°C and 5% CO2 for 24 h, the expression plasmid and the empty vector were introduced separately into the HEK293 cells with Lipofectamine 2000 transfection reagent (Invitrogen, Carlsbad, CA, United States), according to the manufacturer’s protocol to yield transporter-expressing cells and mock cells, respectively.
(§4) Transport studies were performed 48 h after the transfection. […] Differential uptake between the transfected cells and mock cells was defined as net transport ratio (TransportTC/TransportMC ratio), where TransportTC and TransportMC are the transport rates of a test Danshen compound into transfected and mock cells, respectively. […] The determination was performed under linear uptake conditions by incubation for 5 min. Table 1 summarizes the final concentrations of the test Danshen compounds for different transporters. All the incubation samples were analyzed by liquid chromatography/mass spectrometry.
(§5) GraFit software (version 5.0; Erithacus Software Ltd, Surrey, United Kingdom) was used to determine the K m and V max values by nonlinear regression analysis of initial transport rates as a function of substrate concentration.

human OATP1B1 = target: T2, human OATP1B1 (Homo sapiens, UniProt Q9Y6L6); assay: Cellular transport assay, HEK-293 cells expressing human OATP1B1; details: positive substrate 20 μM, 10 min; human OATP1B1
T2 sequence (Q9Y6L6 1-691): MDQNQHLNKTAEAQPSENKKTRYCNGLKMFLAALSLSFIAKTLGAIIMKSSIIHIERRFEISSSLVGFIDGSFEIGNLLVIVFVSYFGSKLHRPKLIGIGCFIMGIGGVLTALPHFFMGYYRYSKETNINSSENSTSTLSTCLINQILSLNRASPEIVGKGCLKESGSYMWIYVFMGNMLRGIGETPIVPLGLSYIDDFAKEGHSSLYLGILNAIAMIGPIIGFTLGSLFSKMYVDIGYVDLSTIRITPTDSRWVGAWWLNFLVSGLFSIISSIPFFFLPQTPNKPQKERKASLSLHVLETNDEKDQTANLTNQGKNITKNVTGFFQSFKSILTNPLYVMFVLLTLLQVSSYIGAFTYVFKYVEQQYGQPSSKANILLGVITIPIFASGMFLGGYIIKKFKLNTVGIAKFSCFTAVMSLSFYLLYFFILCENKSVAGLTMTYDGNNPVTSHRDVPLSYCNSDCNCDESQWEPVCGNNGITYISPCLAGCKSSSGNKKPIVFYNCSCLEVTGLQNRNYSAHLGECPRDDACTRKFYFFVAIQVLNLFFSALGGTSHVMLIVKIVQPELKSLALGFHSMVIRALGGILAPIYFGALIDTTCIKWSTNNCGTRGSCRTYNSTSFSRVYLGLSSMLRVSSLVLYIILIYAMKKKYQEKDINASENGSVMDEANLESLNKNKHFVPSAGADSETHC
Description: as §3, §4, §5

rat Oatp1b2 = target: T3, rat Oatp1b2 (Rattus norvegicus, UniProt Q9QZX8); assay: Cellular transport assay, HEK-293 cells expressing rat Oatp1b2; details: positive substrate 20 μM, 10 min; rat Oatp1b2
T3 sequence (Q9QZX8 1-687): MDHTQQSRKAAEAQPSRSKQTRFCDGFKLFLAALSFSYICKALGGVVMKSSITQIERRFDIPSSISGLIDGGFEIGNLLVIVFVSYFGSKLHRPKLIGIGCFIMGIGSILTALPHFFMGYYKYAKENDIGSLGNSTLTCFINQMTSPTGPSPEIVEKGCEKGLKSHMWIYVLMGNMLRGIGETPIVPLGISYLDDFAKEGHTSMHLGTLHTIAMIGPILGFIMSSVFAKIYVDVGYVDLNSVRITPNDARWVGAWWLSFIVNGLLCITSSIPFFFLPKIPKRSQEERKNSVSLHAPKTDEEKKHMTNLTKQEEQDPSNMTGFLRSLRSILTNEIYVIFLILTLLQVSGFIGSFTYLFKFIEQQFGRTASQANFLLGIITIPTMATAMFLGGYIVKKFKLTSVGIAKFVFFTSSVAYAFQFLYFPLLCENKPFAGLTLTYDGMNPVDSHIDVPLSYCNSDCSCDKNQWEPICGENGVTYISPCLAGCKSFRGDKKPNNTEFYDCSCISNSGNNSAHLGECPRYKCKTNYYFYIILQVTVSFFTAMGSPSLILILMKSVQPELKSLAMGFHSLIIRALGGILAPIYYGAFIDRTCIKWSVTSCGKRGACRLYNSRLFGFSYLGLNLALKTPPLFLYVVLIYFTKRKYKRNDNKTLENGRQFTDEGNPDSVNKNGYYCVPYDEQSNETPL
Description: as §3, §4, §5

human MDR1 = human MDR1 (Homo sapiens, UniProt P08183); assay: Vesicular transport assay, inside-out membrane vesicles expressing human MDR1; details: positive substrate 20 μM, 10 min; human MDR1
Chain of human MDR1 (P08183 whole entry): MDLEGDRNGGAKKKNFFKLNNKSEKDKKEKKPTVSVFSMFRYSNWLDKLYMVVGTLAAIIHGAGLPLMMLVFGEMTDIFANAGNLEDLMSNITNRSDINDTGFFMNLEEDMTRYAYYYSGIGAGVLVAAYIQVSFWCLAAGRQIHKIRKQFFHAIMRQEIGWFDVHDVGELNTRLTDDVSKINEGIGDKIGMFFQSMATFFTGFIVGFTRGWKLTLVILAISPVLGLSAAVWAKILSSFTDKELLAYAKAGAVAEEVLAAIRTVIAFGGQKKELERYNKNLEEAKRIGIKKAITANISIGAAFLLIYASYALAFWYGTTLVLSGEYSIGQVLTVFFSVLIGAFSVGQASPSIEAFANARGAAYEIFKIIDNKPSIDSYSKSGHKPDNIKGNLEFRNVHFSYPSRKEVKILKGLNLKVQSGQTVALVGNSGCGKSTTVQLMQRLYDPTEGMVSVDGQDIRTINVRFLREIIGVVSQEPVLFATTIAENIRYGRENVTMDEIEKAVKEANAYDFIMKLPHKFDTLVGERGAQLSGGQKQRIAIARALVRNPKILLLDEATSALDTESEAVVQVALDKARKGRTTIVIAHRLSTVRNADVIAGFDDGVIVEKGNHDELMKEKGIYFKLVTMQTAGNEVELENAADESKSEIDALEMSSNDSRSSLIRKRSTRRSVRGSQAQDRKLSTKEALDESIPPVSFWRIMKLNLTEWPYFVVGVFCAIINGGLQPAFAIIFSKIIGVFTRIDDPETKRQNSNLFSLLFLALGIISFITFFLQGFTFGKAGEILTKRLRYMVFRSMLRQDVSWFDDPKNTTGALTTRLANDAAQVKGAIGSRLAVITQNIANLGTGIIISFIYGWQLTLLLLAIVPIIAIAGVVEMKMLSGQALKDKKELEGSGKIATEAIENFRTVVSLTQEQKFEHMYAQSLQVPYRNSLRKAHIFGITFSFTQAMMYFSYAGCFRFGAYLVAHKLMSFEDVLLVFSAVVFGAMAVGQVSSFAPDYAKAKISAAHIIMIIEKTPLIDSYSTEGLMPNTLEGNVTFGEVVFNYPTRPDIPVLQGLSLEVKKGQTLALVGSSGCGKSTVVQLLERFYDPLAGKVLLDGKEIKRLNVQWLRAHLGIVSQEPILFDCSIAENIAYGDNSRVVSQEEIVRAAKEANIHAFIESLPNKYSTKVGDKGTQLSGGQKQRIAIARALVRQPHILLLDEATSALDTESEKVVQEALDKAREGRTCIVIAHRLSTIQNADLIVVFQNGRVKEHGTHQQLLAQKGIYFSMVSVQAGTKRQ
Description: as §1, §2

rat Oat2 = target: T4, rat Oat2 (Rattus norvegicus, UniProt Q5RLM2); assay: Cellular transport assay, HEK-293 cells expressing rat Oat2; details: positive substrate 20 μM, 10 min; rat Oat2
T4 sequence (Q5RLM2 1-535): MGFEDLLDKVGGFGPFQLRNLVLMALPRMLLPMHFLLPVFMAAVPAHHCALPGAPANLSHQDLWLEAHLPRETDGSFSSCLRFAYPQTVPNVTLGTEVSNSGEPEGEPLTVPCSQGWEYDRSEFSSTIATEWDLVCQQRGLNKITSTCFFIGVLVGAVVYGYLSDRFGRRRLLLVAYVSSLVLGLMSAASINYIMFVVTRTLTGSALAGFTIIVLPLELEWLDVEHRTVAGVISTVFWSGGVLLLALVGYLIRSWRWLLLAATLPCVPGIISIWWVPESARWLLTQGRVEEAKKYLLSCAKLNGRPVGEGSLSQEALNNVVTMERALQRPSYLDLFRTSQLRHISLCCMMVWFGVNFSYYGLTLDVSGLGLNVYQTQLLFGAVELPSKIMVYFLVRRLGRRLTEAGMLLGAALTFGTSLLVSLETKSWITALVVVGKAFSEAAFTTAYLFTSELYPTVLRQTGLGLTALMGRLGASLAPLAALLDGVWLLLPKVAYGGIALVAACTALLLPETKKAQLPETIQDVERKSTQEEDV
Description: as §3, §4, §5

human OAT2 = target: T5, human OAT2 (Homo sapiens, UniProt Q9Y694); assay: Cellular transport assay, HEK-293 cells expressing human OAT2; details: positive substrate 20 μM, 10 min; human OAT2
T5 sequence (Q9Y694 1-546 isoform Q9Y694-2): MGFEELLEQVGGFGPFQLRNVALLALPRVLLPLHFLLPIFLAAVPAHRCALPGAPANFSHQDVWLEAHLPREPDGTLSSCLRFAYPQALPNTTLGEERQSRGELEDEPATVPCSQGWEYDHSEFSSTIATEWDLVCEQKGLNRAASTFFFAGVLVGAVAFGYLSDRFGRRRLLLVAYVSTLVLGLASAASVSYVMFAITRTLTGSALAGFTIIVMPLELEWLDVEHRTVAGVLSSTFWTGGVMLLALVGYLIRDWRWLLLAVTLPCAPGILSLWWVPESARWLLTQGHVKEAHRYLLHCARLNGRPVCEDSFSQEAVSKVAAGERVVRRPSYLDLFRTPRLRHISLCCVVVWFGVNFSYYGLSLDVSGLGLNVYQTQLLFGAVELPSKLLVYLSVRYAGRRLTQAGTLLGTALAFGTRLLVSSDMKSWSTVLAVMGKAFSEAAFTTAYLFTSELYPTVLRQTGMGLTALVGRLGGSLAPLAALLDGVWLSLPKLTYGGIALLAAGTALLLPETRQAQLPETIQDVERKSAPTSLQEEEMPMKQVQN
Description: as §3, §4, §5

[1] = substrate: O=C(/C=C/c1ccc(O)c(O)c1)O[C@H](Cc1ccc(O)c(O)c1)C(=O)O; assay: cells, lysate or membranes named; details: other: human renal apical uptake OAT4; 5 min incubation, concentrations in Table 1; 37.0 °C

Chain of human MRP3 (O15438 whole entry): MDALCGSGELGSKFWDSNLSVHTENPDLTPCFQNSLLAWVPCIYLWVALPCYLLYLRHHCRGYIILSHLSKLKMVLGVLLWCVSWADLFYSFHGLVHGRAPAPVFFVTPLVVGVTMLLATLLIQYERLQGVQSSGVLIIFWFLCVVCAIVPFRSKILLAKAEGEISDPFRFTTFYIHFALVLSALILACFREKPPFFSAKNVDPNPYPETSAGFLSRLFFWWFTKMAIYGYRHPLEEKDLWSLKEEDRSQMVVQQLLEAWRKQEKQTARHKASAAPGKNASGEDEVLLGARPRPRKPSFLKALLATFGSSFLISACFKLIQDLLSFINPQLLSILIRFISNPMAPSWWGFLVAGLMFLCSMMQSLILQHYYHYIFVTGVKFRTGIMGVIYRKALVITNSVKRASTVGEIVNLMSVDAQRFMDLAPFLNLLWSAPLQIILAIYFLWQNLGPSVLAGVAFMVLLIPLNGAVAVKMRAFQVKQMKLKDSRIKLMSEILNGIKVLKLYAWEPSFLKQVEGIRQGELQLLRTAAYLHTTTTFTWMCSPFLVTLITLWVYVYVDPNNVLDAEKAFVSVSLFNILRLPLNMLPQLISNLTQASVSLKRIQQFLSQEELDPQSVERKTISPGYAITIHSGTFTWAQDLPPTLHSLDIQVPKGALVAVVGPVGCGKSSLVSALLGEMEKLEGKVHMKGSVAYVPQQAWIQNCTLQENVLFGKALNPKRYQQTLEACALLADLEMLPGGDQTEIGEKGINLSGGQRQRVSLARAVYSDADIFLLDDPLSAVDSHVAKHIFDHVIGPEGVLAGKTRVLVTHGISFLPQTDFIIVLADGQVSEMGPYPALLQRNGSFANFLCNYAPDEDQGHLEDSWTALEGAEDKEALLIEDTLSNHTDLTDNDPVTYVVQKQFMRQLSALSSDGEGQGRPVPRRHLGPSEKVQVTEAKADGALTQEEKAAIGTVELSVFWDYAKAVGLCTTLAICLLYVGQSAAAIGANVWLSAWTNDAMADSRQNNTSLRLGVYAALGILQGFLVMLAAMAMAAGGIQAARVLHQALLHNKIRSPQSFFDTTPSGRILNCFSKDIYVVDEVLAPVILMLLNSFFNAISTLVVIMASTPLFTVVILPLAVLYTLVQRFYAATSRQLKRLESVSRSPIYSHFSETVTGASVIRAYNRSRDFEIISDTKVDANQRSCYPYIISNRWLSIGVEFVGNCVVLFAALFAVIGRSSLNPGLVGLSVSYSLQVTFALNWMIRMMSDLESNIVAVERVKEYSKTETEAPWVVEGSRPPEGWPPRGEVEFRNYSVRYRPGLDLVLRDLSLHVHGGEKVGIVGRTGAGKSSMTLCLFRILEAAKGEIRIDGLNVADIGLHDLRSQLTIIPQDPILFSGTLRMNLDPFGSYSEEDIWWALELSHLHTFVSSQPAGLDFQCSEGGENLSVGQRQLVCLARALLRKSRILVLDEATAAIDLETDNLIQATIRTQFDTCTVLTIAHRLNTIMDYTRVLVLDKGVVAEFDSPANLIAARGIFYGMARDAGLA

C[C@]12CC[C@@H]3c4ccc(O)cc4CC[C@H]3[C@@H]1CC[C@@H]2O[C@@H]1O[C@H](C(=O)O)[C@@H](O)[C@H](O)[C@H]1O [E217βG, estradiol-17β-D-glucuronide, reference compound]
TransportATP/TransportAMP ratio, positive substrate (human MRP3): 6.79 ± 1.49 (E217βG)
TransportATP/TransportAMP ratio, positive substrate (rat Mrp2): 3.54 ± 0.32 (E217βG)
TransportATP/TransportAMP ratio, positive substrate (human MRP2): 7.23 ± 1.04 (E217βG)

CC1(C)[C@@H](O[C@H]2O[C@H](C(=O)O)[C@@H](O)[C@H](O)[C@H]2O[C@@H]2O[C@H](C(=O)O)[C@@H](O)[C@H](O)[C@H]2O)CC[C@]2(C)[C@H]3C(=O)C=C4[C@@H]5C[C@@](C)(C(=O)O)CC[C@]5(C)CC[C@@]4(C)[C@]3(C)CC[C@@H]12 [GL, glycyrrhizin, reference compound]
TransportTC/TransportMC ratio, positive substrate (OATP1B3): 33.1 ± 0.5 (GL)
TransportTC/TransportMC ratio, positive substrate (human OATP1B1): 79.5 ± 1.3 (GL)
TransportTC/TransportMC ratio, positive substrate (rat Oatp1b2): 121 ± 2 (GL)
TransportATP/TransportAMP ratio, positive substrate (human MDR1): 5.13 ± 0.87 (GL)

CCCCC[C@H](O)/C=C/[C@@H]1[C@@H](C/C=C\CCCC(=O)O)[C@@H](O)C[C@H]1O [PGF2α, prostaglandin F2α, reference compound]
TransportTC/TransportMC ratio, positive substrate (rat Oat2): 24.3 ± 3.3 (PGF2α)
TransportTC/TransportMC ratio, positive substrate (human OAT2): 70.2 ± 6.6 (PGF2α)

B1: human OAT4 (Homo sapiens) (protein)
chain: MAFSKLLEQAGGVGLFQTLQVLTFILPCLMIPSQMLLENFSAAIPGHRCWTHMLDNGSAVSTNMTPKALLTISIPPGPNQGPHQCRRFRQPQWQLLDPNATATSWSEADTEPCVDGWVYDRSVFTSTIVAKWDLVCSSQGLKPLSQSIFMSGILVGSFIWGLLSYRFGRKPMLSWCCLQLAVAGTSTIFAPTFVIYCGLRFVAAFGMAGIFLSSLTLMVEWTTTSRRAVTMTVVGCAFSAGQAALGGLAFALRDWRTLQLAASVPFFAISLISWWLPESARWLIIKGKPDQALQELRKVARINGHKEAKNLTIEVLMSSVKEEVASAKEPRSVLDLFCVPVLRWRSCAMLVVNFSLLISYYGLVFDLQSLGRDIFLLQALFGAVDFLGRATTALLLSFLGRRTIQAGSQAMAGLAILANMLVPQDLQTLRVVFAVLGKGCFGISLTCLTIYKAELFPTPVRMTADGILHTVGRLGAMMGPLILMSRQALPLLPPLLYGVISIASSLVVLFFLPETQGLPLPDTIQDLESQKSTAAQGNRQEAVTVESTSL
Vmax [1]: 4.75e-05 µmol/min/mg
Vmax/Km [1]: 0.15 µL/min/mg
